Active and inactive are the calls of the source. The calls are words filed in the database; no cut-off is given here.
Key:
Fusarium odoratissimum [1] = assay: Antifungal activity against Fusarium oxysporum f. sp. cubense race 4 infected in Cavendish banana plant assessed as reduction in disease severity at 25 ug a.i./ml applied as soil drench treatment 1 week after planting measured after 7 weeks in greenhouse conditions; type: functional; design: scale not given: the % may be the effect or the level left
Fusarium odoratissimum [2] = assay: Antifungal activity against Fusarium oxysporum f. sp. cubense race 4 infected in Cavendish banana plant assessed as reduction in disease severity at 25 ug a.i./ml applied as soil drench treatment immediately after planting measured after 7 weeks in greenhouse conditions; type: functional; design: scale not given: the % may be the effect or the level left
Fusarium odoratissimum [3] = assay: Antifungal activity against Fusarium oxysporum f. sp. cubense race 4 infected in Cavendish banana plant assessed as reduction in disease severity at 25 ug a.i./ml applied as root dip treatment for 10 min measured after 7 weeks in greenhouse conditions; type: functional; design: scale not given: the % may be the effect or the level left
Fusarium odoratissimum [4] = assay: Growth inhibition of Fusarium oxysporum f. sp. cubense race 4 isolate CAV 031 at 100 ug/ml after 7 days; type: functional, organism-based
Fusarium odoratissimum [5] = assay: Growth inhibition of Fusarium oxysporum f. sp. cubense race 4 isolate CAV 031 at 50 ug/ml after 7 days; type: functional, organism-based
Fusarium odoratissimum [6] = assay: Growth inhibition of Fusarium oxysporum f. sp. cubense race 4 isolate CAV 031 at 10 ug/ml after 7 days; type: functional, organism-based
Fusarium odoratissimum [7] = assay: Growth inhibition of Fusarium oxysporum f. sp. cubense race 4 isolate CAV 086 at 5 ug/ml after 7 days; type: functional, organism-based
Fusarium odoratissimum [8] = assay: Growth inhibition of Fusarium oxysporum f. sp. cubense race 4 isolate CAV 031 at 1 ug/ml after 7 days; type: functional, organism-based
Fusarium odoratissimum [9] = assay: Antifungal activity against Fusarium oxysporum f. sp. cubense race 4 at 10 times recommended dose incubated with 10^2 spore/ml for 5 min measured after 4 days; type: functional, organism-based
Fusarium oxysporum [10] = assay: Antifungal activity against Fusarium oxysporum infected tomato plant grown in hydroponic system applied as curative treatment relative to control; type: functional
Fusarium oxysporum [11] = assay: Antifungal activity against Fusarium oxysporum infected tomato plant grown in hydroponic system applied as preventive treatment relative to control; type: functional
Fusarium odoratissimum [12] = assay: Antifungal activity against Fusarium oxysporum f. sp. cubense race 4 incubated with 10^2 spore/ml for 5 min measured after 4 days; type: functional, organism-based
Fusarium odoratissimum [13] = assay: Growth inhibition of Fusarium oxysporum f. sp. cubense race 4 isolate CAV 086 at 1 ug/ml after 7 days; type: functional, organism-based
Fusarium odoratissimum [14] = assay: Growth inhibition of Fusarium oxysporum f. sp. cubense race 4 isolate CAV 086 at 50 ug/ml after 7 days; type: functional, organism-based
Fusarium odoratissimum [15] = assay: Growth inhibition of Fusarium oxysporum f. sp. cubense race 4 isolate CAV 086 at 10 ug/ml after 7 days; type: functional, organism-based
Fusarium odoratissimum [16] = assay: Antifungal activity against Fusarium oxysporum f. sp. cubense race 4 incubated with 10^2 spore/ml for 5 to 30 min measured after 4 days; type: functional, organism-based
Fusarium odoratissimum [17] = assay: Antifungal activity against Fusarium oxysporum f. sp. cubense race 4 at 0.01 times recommended dose incubated with 10^2 spore/ml for 5 min measured after 4 days; type: functional, organism-based

Row | Structure (SMILES) | Activity (Fusarium odoratissimum [1]) [%] | Activity (Fusarium odoratissimum [2]) [%] | Activity (Fusarium odoratissimum [3]) [%] | growth inhibition (GI) (Fusarium odoratissimum [4]) | growth inhibition (GI) (Fusarium odoratissimum [5]) | growth inhibition (GI) (Fusarium odoratissimum [6]) | growth inhibition (GI) (Fusarium odoratissimum [7]) | growth inhibition (GI) (Fusarium odoratissimum [8]) | Activity (Fusarium odoratissimum [9]) | Activity (Fusarium oxysporum [10]) [%] | Activity (Fusarium oxysporum [11]) [%] | Activity (Fusarium odoratissimum [12]) | growth inhibition (GI) (Fusarium odoratissimum [13]) | growth inhibition (GI) (Fusarium odoratissimum [14]) | growth inhibition (GI) (Fusarium odoratissimum [15]) | Activity (Fusarium odoratissimum [16]) | Activity (Fusarium odoratissimum [17])
1 | CCCCNC(=O)n1c(NC(=O)OC)nc2ccccc21 [BENOMYL] | 72.2 | 22.2 | 66.7 | Active | Active | Active | Active |  |  |  |  |  |  |  |  |  | 
2 | CO/C=C(/C(=O)OC)c1ccccc1Oc1cc(Oc2ccccc2C#N)ncn1 |  |  |  | inactive | inactive | inactive |  | inactive |  |  |  |  |  |  |  |  | 
3 | CCCN(CCOc1c(Cl)cc(Cl)cc1Cl)C(=O)n1ccnc1 [PROCHLORAZ] | 50 | 38.9 | 77.8 | Active | Active | Active |  | Active | Active | 34.4 | 69.9 | Dose-dependent effect | Active | Active | Active |  | 
4 | OCl |  |  |  |  |  |  |  |  | Active |  |  | Dose-dependent effect |  |  |  | Active | inactive
5 | CCCC1COC(Cn2cncn2)(c2ccc(Cl)cc2Cl)O1 (stereo not drawn) [PROPICONAZOLE] | 52.8 | 44.4 | 75 | Active |  |  | Active |  |  |  |  |  |  |  |  |  | 
6 | CO/N=C(/C(=O)OC)c1ccccc1COc1ccccc1C |  |  |  | inactive | inactive | inactive |  | inactive |  |  |  |  |  |  |  |  | 

— ChEMBL document CHEMBL3046113, “Evaluation of fungicides and sterilants for potential application in the management of Fusarium wilt of banana” (Crop Prot, 2007)
